The first experiment deals with human P2X7 receptor (Homo sapiens, UniProt Q99572, R270H/Y155H). Put plainly: Evaluation of human P2X7 receptor inhibitory activity (Yo-Pro uptake, BzATP stimulation, FLIPR TETRA). In kind it is cell-based. Conditions: 1321N1 cells stably expressing human P2X7 receptor; BzATP stimulation, Yo-Pro uptake; read-out: IC50 (antagonistic activity for the human P2X7 receptor). As to the method: Stably expressing cell line (1321N1 cell transfected with the human P2X7 receptor gene (GenBank accession number NM_002562.5 including T606C and G952A SNP)) was used. The cells were seeded in a 384-well microtiter plate at a concentration of 8000 cells/well and cultured in the medium (10% fetal bovine serum, 25 mM HEPES, 1% penicillin and streptomycin in DMEM) for one day at 37° C. under 5% carbon dioxide atmosphere. After replacing with 20 μL of the HBSS buffer (20 mM HEPES, 55.6 mM D-glucose, 1×HBSS(−), pH7.4-7.5), 15 μL of 17.3 μM Yo-Pro solution in the HBSS buffer was added. The plate was placed in high-throughput cellular screening system FLIPR TETRA (Molecullar Devices, LLC.) and 15 μL of 130 μM BzATP solution in the HBSS buffer was added. Measurement of fluorescence intensity by FLIPR TETRA was started. After eight minutes, 15 μL of DMSO solutions containing different concentrations of the compound of the present invention as prepared by dilution with the HBSS buffer were dispensed to each well through the built-in automatic dispenser, and the measurement of fluorescence intensity was continued for 20 minutes. […] Changing values of fluorescence intensity by the compound of the present invention were calculated by difference between maximum and minimum fluorescence intensity for 20 minutes. Inhibition ratios (%) were calculated from the following equation:
[formula] IC50 was calculated using logistic approximation.
With `COc1cn(Cc2ccccc2)c(Nc2cc3nc(C)sc3cc2C)nc1=O` [Compound I-0744], the IC50 was 180 nM.
Still for that read-out and setting: to `CCOc1cc(C)c(Nc2nc(=O)c(OC)cn2Cc2cc(F)cc(Cl)c2)cc1C` [Compound I-0384] belongs 10 nM.
On the same count and under the same terms, next, `Cc1ccc(-c2nnco2)cc1Nc1nc(=O)c(F)cn1Cc1cc(F)c(F)c(F)c1` [Compound I-1216]: 6 nM; `Cc1c(Cl)cccc1Nc1nc(=O)c(C#N)cn1Cc1ccccc1` [Compound I-0013]: 39 nM; `COc1cn(Cc2ccc(F)c(Cl)c2)c(Nc2cc3sc(C)nc3cc2C)nc1=O` [Compound I-0033]: 49 nM.
Still for that read-out and setting: next, `COc1cn(Cc2ccc(F)c(F)c2)c(Nc2cccc(OC(F)F)c2C)nc1=O` [Compound I-0480]: 4 nM.
Take `COc1cn(Cc2cc(C)cc(F)c2)c(Nc2cccc(Cl)c2C)nc1=O` [Compound I-0425]: the IC50 was determined as 19 nM.

The same experiment, now with this note: 1321N1 cells stably expressing human P2X7 receptor; BzATP stimulation, Yo-Pro uptake; read-out: IC50 (antagonistic activity for the human P2X7 receptor), class symbol.
In the case of `COc1cn(Cc2ccc(F)c(Cl)c2)c(Nc2cccc(Cl)c2C)nc1=O` [Compound I-0166], the IC50 is less than 10 nM.
The same measure, in the same setting: to `COc1cn(Cc2cc(F)cc(F)c2)c(Nc2cc(Cl)c(Cl)cc2C)nc1=O` [Compound I-0541] belongs 10 to 100 nM; to `COc1cc(C)cc(Nc2nc(=O)c(OC)cn2Cc2ccc(F)c(Cl)c2)c1C` [Compound I-0465], less than 10 nM.
Still for that read-out and setting: to `COc1cn(Cc2cc(F)cc(F)c2)c(Nc2cc(-c3ncco3)ccc2C)nc1=O` [Compound I-0554] belongs 10 to 100 nM; to `COc1cc(C)c(Nc2nc(=O)c(F)cn2Cc2cccc(Cl)c2)cc1C` [Compound I-0348], less than 10 nM; to `COc1cn(Cc2ccccc2)c(Nc2cccc(F)c2C)nc1=O` [Compound I-0082], 100 to 500 nM.
The same measure, in the same setting: to `COc1ccc(Nc2nc(=O)c(OC)cn2Cc2ccccc2)c(C)c1` [Compound I-0147] belongs 10 to 100 nM.
As for `Cc1c(Cl)cccc1Nc1nc(=O)c(C#N)cn1Cc1ccc(F)cc1` [Compound I-0056], the half-maximal inhibitory concentration (IC50) fell in the range of 10 to 100 nM.
The same measure, in the same setting: to `COc1cc(C)c(Nc2nc(=O)c(F)cn2Cc2ccccc2)cc1OC` [Compound I-0183] belongs 10 to 100 nM.
The same measure, in the same setting: to `COc1cn(Cc2ccccc2)c(Nc2cc(N3CCN(C(=O)OC(C)(C)C)CC3)ccc2C)nc1=O` [Compound I-0411] belongs 100 to 500 nM; to `CCc1cc(OC)c(OC)cc1Nc1nc(=O)c(OC)cn1Cc1cccc(F)c1` [Compound I-0269], less than 10 nM.
Still for that read-out and setting: to `COc1cn(Cc2ccc(Cl)c(Cl)c2)c(Nc2cccc(Cl)c2C)nc1=O` [Compound I-0296] belongs 10 to 100 nM.
`COc1cn(Cc2cc(F)cc(F)c2)c(Nc2cccc(OC(F)F)c2C)nc1=O` [Compound I-0504]: the IC50 was less than 10 nM.
Still for that read-out and setting: to `COc1cn(Cc2ccc(F)c(Cl)c2)c(NCc2cccc(Cl)c2C)nc1=O` [Compound I-0451] belongs 100 to 500 nM; to `CCc1cc(OC)ccc1Nc1nc(=O)c(OC)cn1Cc1cccc(F)c1` [Compound I-0261], less than 10 nM.

Staying with this experiment, now noted: antagonistic activity for the human P2X7 receptor; read-out: IC50.
For `Cc1cc(C)c(Nc2nc(=O)c(F)cn2Cc2cc(F)c(F)c(F)c2)cc1CO` [Compound I-1110], the IC50 is less than 10 nM.
As for `COc1cc(C)c(Nc2nc(=O)c(C)c(C)n2Cc2cc(F)cc(F)c2)cc1OC` [Compound I-1135], the IC50 was in the range of 10 to 100 nM.
Still for that read-out and setting: to `COc1cn(Cc2cc(F)cc(F)c2)c(Nc2cc3c(cc2C)OCCO3)nc1=O` [Compound I-0709] belongs less than 10 nM; to `COc1cn(Cc2cc(F)c(F)c(F)c2)c(Nc2cc(C)c(OC(F)F)cc2C)nc1=O` [Compound I-0607], less than 10 nM; to `COc1cc(C)c(Nc2nc(=O)c(CF)nn2Cc2cc(F)c(F)c(F)c2)cc1OC` [Compound I-1248], 10 to 100 nM.
As to `COc1ccc(C)c(Nc2nc(=O)c(C(=O)O)nn2Cc2cc(F)c(F)c(F)c2)c1` [Compound I-1249], the IC50 was 10 to 100 nM.
For `COc1cn(Cc2cc(F)cc(F)c2)c(Nc2cccc3[nH]c(C)cc23)nc1=O` [Compound I-0598], the IC50 fell in the range of 10 to 100 nM.
As to `CCOc1ccc(Nc2nc(=O)c(F)cn2Cc2ccc(F)c(F)c2)c(C)c1` [Compound I-1048], the IC50 was 10 to 100 nM.
Same read-out and setting: next, `COc1ccc(C)c(Nc2nc(=O)c(C#N)cn2Cc2cc(F)cc(F)c2)c1` [Compound I-1123]: 100 to 500 nM; `COc1cc(C)c(Nc2nc(=O)c(OC)cn2Cc2cc(F)c(F)c(F)c2)cc1C` [Compound I-0632]: less than 10 nM; `CCOc1cc(Nc2nc(=O)c(OC)cn2Cc2ccccc2)c(C)cc1F` [Compound I-0918]: 10 to 100 nM.
For `CON=c1nc(Nc2cc(C)ccc2C)n(Cc2cc(F)c(F)c(F)c2)cc1F` [Compound I-1292], the half-maximal inhibitory concentration (IC50) is 100 to 500 nM.
Same read-out and setting: next, `CCc1cc(Br)ccc1Nc1nc(=O)c(OC)cn1Cc1ccc(F)c(Cl)c1` [Compound I-0631]: 10 to 100 nM; `COc1cc(C)c(Nc2c(Cl)c(=O)c(OC)cn2Cc2ccc(F)c(Cl)c2)cc1C` [Compound I-0964]: 100 to 500 nM.
Turning to `COc1cn(Cc2ccc(F)c(F)c2)c(Nc2cc(Cl)cc3[nH]ccc23)nc1=O` [Compound I-0820], the IC50 lay within 10 to 100 nM.
On the same count and under the same terms, to `COc1cn(Cc2cc(F)c(F)c(F)c2)c(Nc2ccccc2C)nc1=O` [Compound I-1097] belongs 10 to 100 nM; to `COc1cn(Cc2ccccc2)c(Nc2ccc(N(C)C)cc2C)nc1=O` [Compound I-0622], 10 to 100 nM; to `Cc1ccccc1Nc1nc(=O)c(C)cn1Cc1cc(F)c(F)c(F)c1` [Compound I-1098], 10 to 100 nM.
On the same count and under the same terms, next, `CCOc1cn(Cc2ccccc2)c(Nc2cc(C)c(OC)cc2C)nc1=O` [Compound I-0713]: less than 10 nM; `Cc1cc(N2CCOCC2)ccc1Nc1nc(=O)ccn1Cc1cc(F)c(F)c(F)c1` [Compound I-1149]: 10 to 100 nM; `CCc1ccc(Nc2nc(=O)c(F)cn2Cc2cc(F)cc(F)c2)c(C)c1` [Compound I-1228]: less than 10 nM.
`COc1cn(Cc2ccc(F)c(Cl)c2)c(Nc2cc(-c3ccccc3)ccc2C)nc1=O` [Compound I-0828]: the IC50 was 10 to 100 nM.
Same read-out and setting: to `Cc1ccc(N2CCCC2=O)cc1Nc1nc(=O)c(Cl)cn1Cc1cc(F)cc(F)c1` [Compound I-0701] belongs less than 10 nM; to `COc1cn(Cc2ccc(F)c(Cl)c2)c(Nc2cc3c(cc2C)OCC3)nc1=O` [Compound I-0864], less than 10 nM.
As for `Cc1cc(C)c(Nc2nc(=O)c(F)cn2Cc2cc(F)cc(F)c2)cc1CO` [Compound I-1111], the IC50 was less than 10 nM.
Still for that read-out and setting: to `CCc1cc(F)c(OC)cc1Nc1nc(=O)c(F)cn1Cc1cc(F)c(F)c(F)c1` [Compound I-1211] belongs less than 10 nM; to `COc1cn(Cc2ccc(F)c(Cl)c2)c(Nc2cc3c(cc2C)OCCC3=O)nc1=O` [Compound I-0930], 100 to 500 nM.
The same measure, in the same setting: to `COc1cn(Cc2ccc(F)c(Cl)c2)c(Nc2cc(-c3cnccn3)ccc2C)nc1=O` [Compound I-0664] belongs less than 10 nM.
Turning to `COc1cn(Cc2ccc(F)c(Cl)c2)c(Nc2ccc(C#N)cc2C)cc1=O` [Compound I-0958], the IC50 is 100 to 500 nM.
On the same count and under the same terms, next, `COc1cn(Cc2cc(F)cc(Cl)c2)c(Nc2cc(OC(F)F)c(C)cc2C)nc1=O` [Compound I-0877]: 10 to 100 nM; `COc1cn(Cc2ccc(F)c(F)c2)c(Nc2cc(-n3cccc3)ccc2C)nc1=O` [Compound I-0653]: less than 10 nM; `CCOc1cc(C)c(Nc2nc(=O)c(F)cn2Cc2ccc(F)c(F)c2)cc1F` [Compound I-1062]: 10 to 100 nM.
